In brackets after ≈: the same amount, converted by molar mass. Read-outs that look alike come from different tables or passages of the source.
What was measured:
Heliothis zea = experiment: Tobacco Budworm and Cotton Bollworm Leaf Spray Bait Test (cotton bollworm); format: in vivo; details: Helicoverpa zea, 120 h, read-out: LC50 values, Heliothis Zea
Description: (§1) Suspension of the test compounds were prepared by dissolving one gram of compound in 50 milliliters of acetone in which had been dissolved 0.1 gram (10 percent of the weight of compound) of an alkylphenoxy polyethoxyethanol surfactant, as an emulsifying or dispersing agent. The resulting solution was mixed into 150 milliliters of water to give roughly 200 milliliters of a suspension containing the compound in finely divided form. The thus-prepared stock suspension contained 0.5 percent by weight of compound. The test concentrations in parts per million by weight employed in the tests described hereinbelow were obtained by appropriate dilutions of the stock suspension with water. Certain of the test compounds were also prepared by dissolving 375 mg of compound in 7.5 ml of dimethylformamide. Fifteen milliliters of acetone containing 37.5 mg (10 percent of the weight of test compound) of an alkylphenoxy polyethoxyethanol surfactant, as a wetting/emulsifying/dispersing agent was added to the dimethylformamide solution. Fifty-two and one-half milliliters of water wasa mixed into the dimethylformamide-acetone mixture to give roughly 75 ml of a suspension containing the compound in solution or in finely divided form. The thus prepared stock suspension contained 0.5 percent by weight of compound. The test procedures were as follows:
(§2) Second instar larvae of the tobacco budworm (weighing about 4.5 mg) (Heliothis virescens, F.) and the cotton bollworm (weighing about 2.5 mg) (Heliothis zea, (Boddie)), obtained commercially and reared on artificial diet at a temperature of 80°±5° F. and a relative humidity of 50±5 percent, constituted the test insects.
(§3) Using a procedure similar to the above, but substituting cotton plants for snapbeans, treated and dried cotton leaves were introduced into 9 cm Petri dishes which were organized into groups of 10-dish sets. One randomly selected larvae was introduced into each dish of a ten dish set and the dishes were closed. The closed dishes were labelled and held at 80°±5° F. for five days. Larvae which were unable to move the length of the body, even upon stimulation, were considered dead. Percent mortality was recorded for various concentration levels. LC50 or concentration required to kill 50 percent of the larvae was determined from the mortality figures.

Heliothis virescens = experiment: Tobacco Budworm and Cotton Bollworm Leaf Spray Bait Test (tobacco budworm); format: in vivo; details: 120 h, read-out: LC50 values, Heliothis Virescens
Description: as §1, §2, §3

two-spotted mite = experiment: Mite Larvacidal Test Method; format: in vivo; details: Tetranychus urticae, 144 h, two-spotted mite larvae, five to six days, read-out: Mortality Rating at 500 ppm, Larvae
Description: Then the larvae are transferred to bean plants 6-8 inches in height. A sufficient number of larvae for testing (50-100) were transferred from TEPP treated leaves to the fresh plants in 24 hours.
Infested Tendergreen bean plants are placed on a revolving turntable. Test compounds are formulated with DMF, acetone, and a 3 to 1 mixture of Triton 172 and 152 (alkylphenoxy polyethoxyethanol surfactant mixture), respectively and then diluted in water to appropriate concentrations of chemical for application to the infested plants by use of a DeVilbiss spray gun with air pressure set at 40 pounds. The volume of 100 milliliters is sufficient to wet the plants to run off. A blank formulation is used for the control.
The treated plants are held at 80°±5° F. and 50±5 percent relative humidity for a period of five to six days, when mortality counts of the larvae are made.

Mexican bean beetle = experiment: Mexican Bean Beetle Leaf Spray Test; format: in vivo, Epilachna varivestic; details: Epilachna varivestis, 120 h, Mexican Bean Beetle larvae, five days, read-out: Activity at 500 ppm, MBB
Description: as §1
Fourth instar larvae of the Mexican bean beetle (Epilachna varivestic, Muls.), reared on Tendergreen bean plants at a temperature of 80°±5° F. and 50±5 percent relative humidity, were the test insects. For certain of the tests second instar larvae (weighting about 6 mg) of the Mexican bean beetle (Epilachna varaivestis, Muls.), reared on Sieva Pole lime bean plants at a temperature of 80°±5° F. and 50±5 percent relative humidity, were the test insects.
The test compounds were formulated by diluting the stock suspension with water to give a suspension containing 500 parts of test compound per million parts of final formulation. Potted Tendergreen bean plants of standard height and age were placed on a revolving turntable and sprayed with 100-110 milliliters of test compound formulation by use of a DeVilbiss spray gun set at 40 psig air pressure. This application, which lasted 25 seconds, was sufficient to wet plants to run-off. As a control, 100-110 milliliters of a water-acetone-emulsifier solution containing no test compound was also sprayed on infested plants. When dry, the paired leaves were separated and each was placed in a 9 centimeter Petri dish lined with moistened filter paper. Five randomly selected larvae were introduced into each dish, and the dishes were closed. The closed dishes were labeled and held at a temperature of 80°±5° F., for five days. Although the larvae could easily consume the leaf within 24 to 48 hours, no more food was added. Larvae which were unable to move the length of the body, even upon stimulation, were considered dead. Percent mortality was recorded for various concentration levels.

southern armyworm = experiment: Southern Armyworm Leaf Spray Bait Test; format: in vivo; details: Spodoptera eridania, 120 h, read-out: Activity at 500 ppm, SAW, 500 ppm; Southern Armyworm larvae; up to five days
Description: as §1
Larvae of the southern armyworm (Spodoptera eridania, (Cram.), reared on Tendergreen bean plants at a temperature of 80°±5° F. and a relative humidity of 50±5 percent, constituted the test insects.
Potted Tendergreen bean plants of standarad height and age were placed on a revolving turntable and sprayed with 100-110 milliliters of test compound formulation by use of a DeVilbiss spray gun set at 40 psig air pressure. This application, which lasted 25 seconds, was sufficient to wet plants to run-off. As a control, 100-110 milliliters of a water-acetone-emulsifier solution containing no test compound was also sprayed on infested plants. When dry, the paired leaves were separated and each one was placed in a 9 centimeter Petri dish lined with moistened filter paper. Five randomly selected larvae were introduced into each dish and the dishes were closed. The closed dishes were labeled and held at 80°-85° F. for up to five days. Although the larvae could easily consume the whole leaf within twenty-four hours, no more food was added. Larvae which were unable to move the length of the body, even upon stimulation by prodding, were considered dead. Percent mortality was recorded for various concentration levels.

[1] = Heliothis Zea, second instar larvae, five days

Row | Compound | LC50 (Heliothis virescens) [µg/mL] | LC50 (Heliothis zea; [1]) [µg/mL] | mortality at 500 ppm (Mexican bean beetle) [%] | mortality at 500 ppm (southern armyworm) [%] | also measured
1 | O=C(NC(=O)c1c(F)cccc1F)Nc1ccc(Cl)cc1 [Comparative Example A, reference compound] | 31 (≈ 99.8 µM) |  |  |  | LC50 (Heliothis zea): 500 µg/mL (≈ 1610 µM)
2 | O=C(NC(=O)c1c(F)cccc1F)Nc1cc(Cl)c(Oc2cccc3ccccc23)c(Cl)c1 [Comparative Example K, reference compound] | 500 (≈ 1030 µM) | 30 (≈ 61.6 µM) |  |  | 
3 | Cc1cc(NC(=O)NC(=O)c2c(F)cccc2F)c(C)c(Cl)c1Oc1ccccc1-c1ccccc1 [Example 36] | 9 (≈ 17.8 µM) | 2.2 (≈ 4.34 µM) |  |  | 
4 | Cc1ccc(Oc2ccc(NC(=O)NC(=O)c3c(F)cccc3F)cc2Cl)c(C)c1 [Comparative Example J, reference compound] | > 100 | > 100 |  |  | 
5 | Cc1cc(NC(=O)NC(=O)c2c(F)cccc2Cl)c(C)c(Cl)c1Oc1ccccc1-c1ccccc1 [Example 40] |  |  |  |  | mortality at 500 ppm (two-spotted mite): 71 to 100%
6 | Cc1cc(NC(=O)NC(=O)c2c(F)cccc2F)c(C)c(Cl)c1Oc1ccc(Cl)cc1-c1ccccc1 [Example 38] | 1.9 (≈ 3.51 µM) | 1.6 (≈ 2.96 µM) |  |  | 
7 | Cc1cc(NC(=O)NC(=O)c2ccccc2Cl)c(C)c(Cl)c1Oc1ccccc1-c1ccccc1 [Example 37] | 4 (≈ 7.91 µM) | 1.7 (≈ 3.36 µM) |  |  | 
8 | Cc1cc(NC(=O)NC(=O)c2ccccc2Cl)c(C)c(Cl)c1Oc1ccc(-c2ccccc2)cc1Cl [Example 1, 1-(2-chlorobenzoyl)-3-[2,5-dimethyl-3-chloro-4-(2-chloro-4-phenylphenoxy)phenyl]urea] |  |  | 71 to 100 | 71 to 100 | 
9 | O=C(NC(=O)c1c(F)cccc1F)Nc1cc(Cl)c(OCc2ccccc2-c2ccccc2)c(Cl)c1 [Example 39] | 16 (≈ 30.3 µM) | 5 (≈ 9.48 µM) |  |  | 
10 | O=C(NC(=O)c1c(F)cccc1F)Nc1cc(Cl)c(Oc2ccccc2-c2ccccc2)c(Cl)c1 [Example 31] |  |  | 71 to 100 | 71 to 100 | 
11 | Cc1cc(NC(=O)NC(=O)c2c(F)cccc2Cl)c(C)c(Cl)c1Oc1ccccc1-c1ccccc1 [Example 5] |  |  | 71 to 100 | 71 to 100 | 
12 | Cc1cc(NC(=S)NC(=O)c2ccccc2Cl)c(C)c(Cl)c1Oc1ccccc1-c1ccccc1 [Example 7] |  |  | 71 to 100 | 71 to 100 | 
13 | Cc1cc(NC(=O)NC(=O)c2c(F)cccc2F)c(C)c(Cl)c1Oc1ccc(-c2ccccc2)cc1 [Example 11] |  |  | 71 to 100 | 71 to 100 | 

From US4638088A, “Pesticidal biphenylyloxy and biphenylylalkoxy aryl acyl urea compounds” (Union Carbide Corporation, priority 1984, dated 1987)
